Reference: US20230233576A1, “ECLITASERTIB FOR USE IN TREATING CONDITIONS INVOLVING SYSTEMIC HYPERINFLAMMATORY RESPONSE” (priority 2020, published 2023)

Experiments:
Type in all cases: in vivo, human
[1] = system: adult participants hospitalized for severe COVID-19; experiment: Phase 1b severe COVID-19 study: 7-point clinical scale; conditions: 600 mg
Description: Exploratory clinical assessments endpoints included: • Change from baseline in ferritin and LDH at Day 7 and EOT • Proportion of participants per category of the 7-point clinical scale at EOT • Time to improvement by 2 points in category of 7-point clinical scale • Quantitative SARS-COV-2 viral load in blood at baseline and on Day 3, 5, 7 and EOT
The 7-point clinical scale is described below: • 1. Death • 2. Hospitalized, on invasive mechanical ventilation or ECMO • 3. Hospitalized, on non-invasive ventilation or high flow oxygen devices • 4. Hospitalized, requiring supplemental oxygen • 5. Hospitalized, not requiring supplemental oxygen—requiring ongoing medical care (COVID-19 related or otherwise) • 6. Hospitalized, not requiring supplemental oxygen—no longer requires ongoing medical care • 7. Not hospitalized

[2] = system: adult participants hospitalized for severe COVID-19; experiment: Phase 1b severe COVID-19 study: clinical laboratory abnormalities (PCSA); conditions: TEAE period
Method: Standard clinical laboratory parameters (hematology, blood chemistry) were measured per protocol.
(§1) For laboratory parameters (hematology, clinical chemistry, and urinalysis), vital signs, and ECG, incidences of potentially clinically significant abnormality (PCSA) values, actual values and change from baseline were summarized by treatment group.
(§2) For all laboratory, vital signs and ECG parameters, raw data and change from baseline were summarized in descriptive statistics by treatment group and scheduled time of measurement, with the exception of AST, ALT and alkaline phosphatase: instead of summarizing data in descriptive statistics, participants' profiles were presented through graphics by treatment group and with a color code to identify sites. The reason was that blood samples were processed by local laboratories with different normal ranges. For the rest of clinical laboratory these parameters it is reasonable to pool data as they are standard procedure and no significant differences in normal ranges were expected.

[3] = system: adult participants hospitalized for severe COVID-19; experiment: Phase 1b severe COVID-19 study: vital signs abnormalities (PCSA); conditions: 600 mg, TEAE period
Method: Physical examination including lung auscultation and assessment of consciousness, vital sign, electrocardiogram (ECG) parameters were measured per protocol.
as §1, §2

[4] = EOT, Efficacy population (N = 41)
[5] = abnormal baseline (LLN/ULN or PCSA), 600 mg (N = 47), safety population
[6] = all baseline values counted in one unique group (as normal), 600 mg (N = 47), safety population
[7] = missing baseline, 600 mg (N = 47), safety population
[8] = normal baseline, 600 mg (N = 47), safety population

CN1C(=O)[C@@H](NC(=O)c2nnc(Cc3ccccc3)[nH]2)COc2cccnc21 [RIPK1 Inhibitor, (S)-5-benzyl-N-(5-methyl-4-oxo-2,3,4,5-tetrahydropyrido[3,2-b][1,4]oxazepin-3-yl)-4H-1,2,4-triazole-3-carboxamide]
7-point clinical scale category 3, participants [1, 4]: 0 n | 7-point clinical scale category 5, participants [1, 4]: 0 n | 7-point clinical scale category 6, participants [1, 4]: 0 n | median time to improvement by at least 2 points in the category of 7-point scale ([1]; Kaplan-Meier, Efficacy population): 8 days | participants with a 7-point clinical scale score of 5 or lower ([1]; end of study treatment period or early discontinuation): 15% | participants with ALT>3 ULN ([2]; 600 mg): 9 participants | participants with ALT>5 ULN ([2]; 600 mg): 1 participants | participants with AST>5 ULN ([2]; 600 mg): 1 participants | participants with PCSAs of AST>3 ULN ([2]; 600 mg): 2 participants | participants with alkaline phosphatase>1.5 ULN ([2]; 600 mg): 2 participants | participants with total bilirubin>1.5 ULN ([2]; 600 mg): One | PCSA Alanine Aminotransferase (ALT) >3 ULN [2, 5]: 7/20 | PCSA Alanine Aminotransferase (ALT) >5 ULN [2, 5]: 0/20 | PCSA Alanine Aminotransferase (ALT) >10 ULN [2, 5]: 0/20 | PCSA Alanine Aminotransferase (ALT) >20 ULN [2, 5]: 0/20 | PCSA Albumin ≤25 g/L [2, 5]: 0/28 | PCSA Alkaline Phosphatase >1.5 ULN [2, 5]: 0/0 | PCSA Aspartate Aminotransferase (AST) >3 ULN [2, 5]: 1/24 | PCSA Aspartate Aminotransferase (AST) >5 ULN [2, 5]: 0/24 | PCSA Aspartate Aminotransferase (AST) >10 ULN [2, 5]: 0/24 | PCSA Basophils >0.1 * 10^9/L [2, 5]: 0/0 | PCSA C-Reactive Protein >2 ULN or >10 mg/L (if ULN not provided) [2, 5]: 42/46 | PCSA Conjugated bilirubin >35% Bilirubin and Bilirubin >1.5 ULN [2, 5]: 0/0 | PCSA Creatinine Clearance (CG) <15 mL/min (end stage renal disease) [2, 5]: 0/18 | PCSA Creatinine Clearance (CG) ≥15-<30 mL/min (severe decrease in GFR) [2, 5]: 0/18 | PCSA Creatinine Clearance (CG) ≥30-<60 mL/min (moderate decrease in GFR) [2, 5]: 4/18 | PCSA Creatinine Clearance (CG) ≥60-<90 mL/min (mild decrease in GFR) [2, 5]: 11/18 | PCSA Creatinine ≥150 μmol/L (Adults) [2, 5]: 1/8 | PCSA Eosinophils >0.5 * 10^9/L or >ULN (if ULN ≥ 0.5 * 10^9/L) [2, 5]: 0/9 | PCSA Erythrocyte Count (RBC) ≥6 * 10^12/L [2, 5]: 1/17 | PCSA Glucose ≤3.9 mmol/L and <LLN [2, 5]: 1/33 | PCSA Glucose ≥11.1 mmol/L (unfasted); ≥7 mmol/L (fasted) [2, 5]: 18/33 | PCSA Hematocrit ≤0.37 v/v (Male); ≤0.32 v/v (Female) [2, 5]: 11/17 | PCSA Hematocrit ≥0.55 v/v (Male); ≥0.5 v/v (Female) [2, 5]: 0/17 | PCSA Hemoglobin ≤115 g/L (Male); ≤95 g/L (Female) [2, 5]: 4/18 | PCSA Hemoglobin ≥185 g/L (Male); ≥165 g/L (Female) [2, 5]: 0/18 | PCSA Lymphocytes >4 * 10^9/L [2, 5]: 2/11 | PCSA Monocytes >0.7 * 10^9/L [2, 5]: 6/10 | PCSA Neutrophils <1.5 * 10^9/L (Non-Black); <1 * 10^9/L (Black) [2, 5]: 0/8 | PCSA Platelet Count <100 * 10^9/L [2, 5]: 1/11 | PCSA Platelet Count ≥700 * 10^9/L [2, 5]: 1/11 | PCSA Potassium <3 mmol/L [2, 5]: 0/7 | PCSA Potassium ≥5.5 mmol/L [2, 5]: 1/7 | PCSA Sodium ≤129 mmol/L [2, 5]: 0/8 | PCSA Sodium ≥160 mmol/L [2, 5]: 0/8 | PCSA Total Bilirubin >1.5 ULN [2, 5]: 0/2 | PCSA Total Bilirubin >2 ULN [2, 5]: 0/2 | PCSA White blood cell count <3 * 10^9/L (Non-Black); <2 * 10^9/L (Black) [2, 5]: 0/10 | PCSA White blood cell count ≥16 * 10^9/L [2, 5]: 1/10 | PCSA Creatinine ≥30% change from baseline [2, 6]: 3/47 | PCSA Creatinine ≥100% change from baseline [2, 6]: 0/47 | PCSA Hemoglobin Decrease from baseline ≥20 g/L [2, 6]: 4/47 | PCSA Alanine Aminotransferase (ALT) >3 ULN [2, 7]: 0/0 | PCSA Alanine Aminotransferase (ALT) >5 ULN [2, 7]: 0/0 | PCSA Alanine Aminotransferase (ALT) >10 ULN [2, 7]: 0/0 | PCSA Alanine Aminotransferase (ALT) >20 ULN [2, 7]: 0/0 | PCSA Albumin ≤25 g/L [2, 7]: 0/0 | PCSA Alkaline Phosphatase >1.5 ULN [2, 7]: 0/0 | PCSA Aspartate Aminotransferase (AST) >3 ULN [2, 7]: 0/0 | PCSA Aspartate Aminotransferase (AST) >5 ULN [2, 7]: 0/0 | PCSA Aspartate Aminotransferase (AST) >10 ULN [2, 7]: 0/0 | PCSA C-Reactive Protein >2 ULN or >10 mg/L (if ULN not provided) [2, 7]: 0/0 | PCSA Conjugated bilirubin >35% Bilirubin and Bilirubin >1.5 ULN [2, 7]: 0/1 | PCSA Glucose ≤3.9 mmol/L and <LLN [2, 7]: 0/3 | PCSA Glucose ≥11.1 mmol/L (unfasted); ≥7 mmol/L (fasted) [2, 7]: 3/3 | PCSA Total Bilirubin >1.5 ULN [2, 7]: 0/0 | PCSA Total Bilirubin >2 ULN [2, 7]: 0/0 | PCSA Alanine Aminotransferase (ALT) >3 ULN [2, 8]: 2/27 | PCSA Alanine Aminotransferase (ALT) >5 ULN [2, 8]: 1/27 | PCSA Alanine Aminotransferase (ALT) >10 ULN [2, 8]: 0/27 | PCSA Alanine Aminotransferase (ALT) >20 ULN [2, 8]: 0/27 | PCSA Albumin ≤25 g/L [2, 8]: 0/18 | PCSA Alkaline Phosphatase >1.5 ULN [2, 8]: 2/46 | PCSA Aspartate Aminotransferase (AST) >3 ULN [2, 8]: 1/23 | PCSA Aspartate Aminotransferase (AST) >5 ULN [2, 8]: 1/23 | PCSA Aspartate Aminotransferase (AST) >10 ULN [2, 8]: 0/23 | PCSA Basophils >0.1 * 10^9/L [2, 8]: 3/29 | PCSA C-Reactive Protein >2 ULN or >10 mg/L (if ULN not provided) [2, 8]: 0/1 | PCSA Conjugated bilirubin >35% Bilirubin and Bilirubin >1.5 ULN [2, 8]: 0/46 | PCSA Creatinine Clearance (CG) <15 mL/min (end stage renal disease) [2, 8]: 0/29 | PCSA Creatinine Clearance (CG) ≥15-<30 mL/min (severe decrease in GFR) [2, 8]: 0/29 | PCSA Creatinine Clearance (CG) ≥30-<60 mL/min (moderate decrease in GFR) [2, 8]: 0/29 | PCSA Creatinine Clearance (CG) ≥60-<90 mL/min (mild decrease in GFR) [2, 8]: 5/29 | PCSA Creatinine ≥150 μmol/L (Adults) [2, 8]: 0/39 | PCSA Eosinophils >0.5 * 10^9/L or >ULN (if ULN ≥ 0.5 * 10^9/L) [2, 8]: 1/20 | PCSA Erythrocyte Count (RBC) ≥6 * 10^12/L [2, 8]: 0/30 | PCSA Glucose ≤3.9 mmol/L and <LLN [2, 8]: 1/10 | PCSA Glucose ≥11.1 mmol/L (unfasted); ≥7 mmol/L (fasted) [2, 8]: 5/10 | PCSA Hematocrit ≤0.37 v/v (Male); ≤0.32 v/v (Female) [2, 8]: 4/30 | PCSA Hematocrit ≥0.55 v/v (Male); ≥0.5 v/v (Female) [2, 8]: 0/30 | PCSA Hemoglobin ≤115 g/L (Male); ≤95 g/L (Female) [2, 8]: 1/29 | PCSA Hemoglobin ≥185 g/L (Male); ≥165 g/L (Female) [2, 8]: 0/29 | PCSA Lymphocytes >4 * 10^9/L [2, 8]: 3/18 | PCSA Monocytes >0.7 * 10^9/L [2, 8]: 12/19 | PCSA Neutrophils <1.5 * 10^9/L (Non-Black); <1 * 10^9/L (Black) [2, 8]: 2/21 | PCSA Platelet Count <100 * 10^9/L [2, 8]: 0/36 | PCSA Platelet Count ≥700 * 10^9/L [2, 8]: 0/36 | PCSA Potassium <3 mmol/L [2, 8]: 0/40 | PCSA Potassium ≥5.5 mmol/L [2, 8]: 4/40 | PCSA Sodium ≤129 mmol/L [2, 8]: 1/39 | PCSA Sodium ≥160 mmol/L [2, 8]: 0/39 | PCSA Total Bilirubin >1.5 ULN [2, 8]: 1/45 | PCSA Total Bilirubin >2 ULN [2, 8]: 0/45 | PCSA White blood cell count <3 * 10^9/L (Non-Black); <2 * 10^9/L (Black) [2, 8]: 1/37 | PCSA White blood cell count ≥16 * 10^9/L [2, 8]: 2/37 | participants with systolic blood pressure≤95 mmHg and decrease from baseline≥20 mmHg [3]: 4 participants | PCSA Diastolic Blood Pressure ≤45 mmHg and decrease from baseline ≥10 mmHg ([3]; Safety population): 1/47 | PCSA Diastolic Blood Pressure ≥110 mmHg and increase from baseline ≥10 mmHg ([3]; Safety population): 0/47 | PCSA Heart Rate ≤50 beats/min and decrease from baseline ≥20 beats/min ([3]; Safety population): 0/47 | PCSA Heart Rate ≥120 beats/min and increase from baseline 20 beats/min ([3]; Safety population): 1/47 | PCSA Systolic Blood Pressure ≤95 mmHg and decrease from baseline ≥20 mmHg ([3]; Safety population): 4/47 | PCSA Systolic Blood Pressure ≥160 mmHg and increase from baseline ≥20 mmHg ([3]; Safety population): 4/47
